# Test results: US8653263B2 (Janssen Pharmaceutica, priority 2009, dated 2014)
# Target: human orexin-2 receptor (Homo sapiens (Human), UniProt O43614)
# Test: Human orexin 2 receptor radioligand binding ([3H]-EMPA competition)
# Settings: HEK293 cells stably expressing human orexin-2 receptor; [3H]-EMPA 5 nM final; apparent Ki=IC50/(1+C/Kd), Kd=2 nM; read-out: OR 2 Ki
# human orexin-2 receptor, sequence (O43614 whole entry): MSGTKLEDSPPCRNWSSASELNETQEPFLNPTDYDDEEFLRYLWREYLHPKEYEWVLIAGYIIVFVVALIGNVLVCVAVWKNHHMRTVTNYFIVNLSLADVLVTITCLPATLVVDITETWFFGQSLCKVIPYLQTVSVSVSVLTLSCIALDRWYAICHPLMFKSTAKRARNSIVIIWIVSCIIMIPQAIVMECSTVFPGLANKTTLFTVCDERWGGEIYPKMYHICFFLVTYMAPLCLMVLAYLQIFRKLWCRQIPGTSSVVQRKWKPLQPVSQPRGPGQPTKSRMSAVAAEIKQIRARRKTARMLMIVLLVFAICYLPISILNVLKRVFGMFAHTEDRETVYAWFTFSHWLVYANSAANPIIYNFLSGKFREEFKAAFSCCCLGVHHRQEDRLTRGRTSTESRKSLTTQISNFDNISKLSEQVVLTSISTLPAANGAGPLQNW
row,Ki,Compound
1,17 nM,"COc1ccc(C(=O)N2CC3CN(c4ncc(F)c(C)n4)CC3C2)c(-n2nccn2)c1 (centres unmarked) [Example 377, 2-(5-Fluoro-4-methylpyrimidin-2-yl)-5-{[4-methoxy-2-(2H-1,2,3-triazol-2-yl)phenyl]carbonyl}octahydropyrrolo[3,4-c]pyrrole]"
2,67 nM,"CN(C)c1cc(N2CC3CN(C(=O)c4ccc(F)cc4-n4nccn4)CC3C2)nc(C(F)(F)F)n1 (centres unmarked) [Example 6, 6-[5-{[4-Fluoro-2-(2H-1,2,3-triazol-2-yl)phenyl]carbonyl}hexahydropyrrolo[3,4-c]pyrrol-2(1H)-yl]-N,N-dimethyl-2-(trifluoromethyl)pyrimidin-4-amine]"
3,1020 nM,"COc1cccc(OC)c1C(=O)N1CC2CN(c3nc4ccccc4o3)CC2C1 (centres unmarked) [Example 192, (5-Benzooxazol-2-yl-hexahydro-pyrrolo[3,4-c]pyrrol-2-yl)-(2,6-dimethoxy-phenyl)-methanone]"
4,3190 nM,"Cc1cc(C)nc(N2CC3CN(C(=O)c4ccccc4-n4ccnn4)CC3C2)n1 (centres unmarked) [Example 205, [5-(4,6-Dimethyl-pyrimidin-2-yl)-hexahydro-pyrrolo[3,4-c]pyrrol-2-yl]-(2-[1,2,3]triazol-1-yl-phenyl)-methanone]"
5,5000 nM,"Cc1cc(N2CC3CN(C(=O)c4cc(F)ccc4-n4nccn4)CC3C2)nc(C)n1 (centres unmarked) [Example 115, [5-(2,6-Dimethyl-pyrimidin-4-yl)-hexahydro-pyrrolo[3,4-c]pyrrol-2-yl]-(5-fluoro-2-[1,2,3]triazol-2-yl-phenyl)-methanone]"
6,36 nM,"COc1ccnc(N2CC3CN(C(=O)c4ccccc4-c4cccs4)CC3C2)n1 (centres unmarked) [Example 45, 2-(4-Methoxypyrimidin-2-yl)-5-[(2-thiophen-2-ylphenyl)carbonyl]octahydro-pyrrolo[3,4-c]pyrrole]"
7,10000 nM,"O=C(c1ccccc1-c1ccc(C(F)(F)F)cc1)N1CC2CN(c3cnc4ccccc4n3)CC2C1 (centres unmarked) [Example 194, (5-Quinoxalin-2-yl-hexahydro-pyrrolo[3,4-c]pyrrol-2-yl)-(4′-trifluoromethyl-biphenyl-2-yl)-methanone]"
8,75 nM,"CCOc1ccccc1C(=O)N1CC2CN(c3nc(C)cc(C)n3)CC2C1 (centres unmarked) [Example 88, 2-(4,6-Dimethylpyrimidin-2-yl)-5-[(2-ethoxyphenyl)carbonyl]octahydropyrrolo[3,4-c]pyrrole]"
9,1300 nM,"O=C(c1ccccc1-c1ccccc1)N1CC2CN(c3nc4ccc(Cl)cc4s3)CC2C1 (centres unmarked) [Example 190, Biphenyl-2-yl-[5-(6-chloro-benzothiazol-2-yl)-hexahydro-pyrrolo[3,4-c]pyrrol-2-yl]-methanone]"
10,1470 nM,"Cc1ccc(C(=O)N2CC3CN(c4nc(C)cc(C)n4)CC3C2)c(C)c1 (centres unmarked) [Example 227, 2-[(2,4-Dimethylphenyl)carbonyl]-5-(4,6-dimethylpyrimidin-2-yl)octahydropyrrolo[3,4-c]pyrrole]"
11,404 nM,"Cc1cc(C)nc(N2CC3CN(C(=O)c4cccc(C)c4C)CC3C2)n1 (centres unmarked) [Example 219, 2-[(2,3-Dimethylphenyl)carbonyl]-5-(4,6-dimethylpyrimidin-2-yl)octahydropyrrolo[3,4-c]pyrrole]"
12,551 nM,"O=C(c1ccccc1-c1nnc[nH]1)N1CC2CN(c3nc4ccccc4nc3C(F)(F)F)CC2C1 (centres unmarked) [Example 94, 2-[5-{[2-(4H-1,2,4-Triazol-3-yl)phenyl]carbonyl}hexahydropyrrolo[3,4-c]pyrrol-2(1H)-yl]-3-(trifluoromethyl)quinoxaline]"
13,228 nM,"Cc1nc2ccccc2nc1N1CC2CN(C(=O)c3ccccc3-c3cccs3)CC2C1 (centres unmarked) [Example 65, 2-Methyl-3-{5-[(2-thiophen-2-ylphenyl)carbonyl]hexahydropyrrolo[3,4-c]pyrrol-2(1H)-yl}quinoxaline]"
14,59 nM,"Cc1cccc(-c2cc(F)ccc2C(=O)N2CC3CN(c4nc(C)cc(C)n4)CC3C2)n1 (centres unmarked) [Example 335, (5-(4,6-dimethylpyrimidin-2-yl)hexahydropyrrolo[3,4-c]pyrrol-2(1H)-yl)(4-fluoro-2-(6-methylpyridin-2-yl)phenyl)methanone]"
15,2950 nM,"COc1cc(C)ccc1C(=O)N1CC2CN(c3nc(C)cc(C)n3)CC2C1 (centres unmarked) [Example 276, (5-(4,6-Dimethylpyrimidin-2-yl)hexahydropyrrolo[3,4-c]pyrrol-2(1H)-yl)(2-methoxy-4-methylphenyl)methanone]"
16,3780 nM,"COc1ccnc(N2CC3CN(C(=O)c4ccccc4OC)CC3C2)n1 (centres unmarked) [Example 199, (2-Methoxy-phenyl)-[5-(4-methoxy-pyrimidin-2-yl)-hexahydro-pyrrolo[3,4-c]pyrrol-2-yl]-methanone]"
17,123 nM,"Cc1cc(N2CC3CN(C(=O)c4ccccc4-c4ccccc4)CC3C2)nc2ccccc12 (centres unmarked) [Example 178, 2-[5-(Biphenyl-2-ylcarbonyl)hexahydropyrrolo[3,4-c]pyrrol-2(1H)-yl]-4-methylquinoline]"
18,10000 nM,"COc1cccc(C(=O)N2CC3CN(c4nc(C)cc(C)n4)CC3C2)c1-n1ccnn1 (centres unmarked) [Example 286, 2-(4,6-Dimethylpyrimidin-2-yl)-5-{[3-methoxy-2-(1H-1,2,3-triazol-1-yl)phenyl]carbonyl}octahydropyrrolo[3,4-c]pyrrole]"
19,173 nM,"O=C(c1ccccc1-n1nccn1)N1CC2CN(c3cnc4ccccc4n3)CC2C1 (centres unmarked) [Example 149, 2-[5-{[2-(2H-1,2,3-Triazol-2-yl)phenyl]carbonyl}hexahydropyrrolo[3,4-c]pyrrol-2(1H)-yl]quinoxaline]"
20,241 nM,"COc1ccnc(N2CC3CN(C(=O)c4ccccc4-c4ncn[nH]4)CC3C2)n1 (centres unmarked) [Example 154, 2-(4-Methoxypyrimidin-2-yl)-5-{[2-(1H-1,2,4-triazol-5-yl)phenyl]carbonyl}octahydropyrrolo[3,4-c]pyrrole]"
21,55 nM,"Cc1cncc(N2CC3CN(C(=O)c4ccc(F)cc4-n4nccn4)CC3C2)n1 (centres unmarked) [Example 158, 2-{[4-Fluoro-2-(2H-1,2,3-triazol-2-yl)phenyl]carbonyl}-5-(6-methylpyrazin-2-yl)octahydropyrrolo[3,4-c]pyrrole]"
22,1700 nM,"Cc1ncnc(N2CC3CN(C(=O)c4c(F)cccc4-n4nccn4)CC3C2)n1 (centres unmarked) [Example 303, 2-{[2-Fluoro-6-(2H-1,2,3-triazol-2-yl)phenyl]carbonyl}-5-(4-methyl-1,3,5-triazin-2-yl)octahydropyrrolo[3,4-c]pyrrole]"
23,18 nM,"Cc1noc(-c2ccccc2C(=O)N2CC3CN(c4nc(C)c5c(n4)CCC5)CC3C2)n1 (centres unmarked) [Example 319, 4-Methyl-2-[5-{[2-(3-methyl-1,2,4-oxadiazol-5-yl)phenyl]carbonyl}hexahydropyrrolo[3,4-c]pyrrol-2(1H)-yl]-6,7-dihydro-5H-cyclopenta[d]pyrimidine]"
24,669 nM,"O=C(c1ccccc1-c1ccccc1)N1CC2CN(c3ccc4ccccc4n3)CC2C1 (centres unmarked) [Example 175, 2-[5-(Biphenyl-2-ylcarbonyl)hexahydropyrrolo[3,4-c]pyrrol-2(1H)-yl]quinoline]"
25,5 nM,"Cc1noc(-c2ccccc2C(=O)N2CC3CN(c4nc(C)c(Cl)c(C)n4)CC3C2)n1 (centres unmarked) [Example 318, 2-(5-Chloro-4,6-dimethylpyrimidin-2-yl)-5-{[2-(3-methyl-1,2,4-oxadiazol-5-yl)phenyl]carbonyl}octahydropyrrolo[3,4-c]pyrrole]"
26,25 nM,"CCOc1ccc2ccccc2c1C(=O)N1CC2CN(c3nc(C)cc(C)n3)CC2C1 (centres unmarked) [Example 77, 2-(4,6-Dimethylpyrimidin-2-yl)-5-[(2-ethoxynaphthalen-1-yl)carbonyl]octahydro-pyrrolo[3,4-c]pyrrole]"
